Data on 5 compounds can be found in US20030158126A1, “Method of treatment for fungal infections with a synergistic formulation of antifungal agents” (priority 2002, published 2003).

Structures are written as SMILES.

The subject of assay [1] is Candida albicans. As to the kind of experiment: Minimum inhibitory concentration (MIC) in broth culture of Candida albicans. The assay is classed as cell-based, Candida albicans (MTCC1637 equivalent to ATCC 18804). The note with it: for activity of the components at the concentrations used: proportional concentrations within 0.25 μg/ml. As for the experimental part: In the present invention Candida albicans (MTCC1637 equivalent to ATCC 18804)=Interdigital mycoses, Neotype strain, production of citric acid) is used for all the experimentations (MTCC=Microbial type culture collection, Institute of Microbial Technology, Chandigarh, India).
The minimum inhibitory concentrations (MIC) of the compound menthyl acetate and menthol is determined in broth culture of Candida albicans and is estimated to be […] and 500 μg/ml respectively.
A combination of the two compounds menthol and menthyl acetate in 1:1 ratio is evaluated for synergistic action if any. […] Therefore this combination is further tested for activity against Candida in combination with known antifungal drugs.
Following ratios are prepared by dissolving menthol in menthyl acetate. The ratios are tested for minimum inhibitory concentration in broth cultures of Candida albicans. As mentioned in the TABLE 1, the MIC of ratios are several folds lower than the additive MIC of individual compounds. Identification numbers of the ratios are the numbers given to identify the combination and mean nothing more than this. […] All these combinations are found to be synergistic for antifungal activities.

The subject of assay [2] is Candida albicans. As to the kind of experiment: Synergism of menthol, menthyl acetate or their ratios with antifungal drugs (MIC, FIC, fold enhancement). The assay is classed as cell-based, Candida albicans (MTCC1637 equivalent to ATCC 18804). The following applies: for synergism of the individual compound with Clotrimazole, Amphotericin B and Nystatin: individual compound at a concentration of 0.25 μg/ml. As for the experimental part: In the present invention Candida albicans (MTCC1637 equivalent to ATCC 18804)=Interdigital mycoses, Neotype strain, production of citric acid) is used for all the experimentations (MTCC=Microbial type culture collection, Institute of Microbial Technology, Chandigarh, India). […]
The fractional inhibitory concentrations (FIC) are calculated by dividing the MIC of the combination with the MIC of antifungal compound alone. The enhancement is calculated by dividing the MIC of the antifungal compound with the MIC of the combination. […] Similarly, the maximum enhancement of Amphotericin is detected for the same set of ratios (2114, 2115, 2116). The enhancement of Nystatin is detected in the combinations with ratios 2112 and 2114. (TABLE 3)

[3] abbreviates: antifungal drug alone or with menthol/menthyl acetate combination at 0.25 μg/ml.

Turning to `CC(=O)OC1CC(C)CCC1C(C)C` (stereo not drawn) [menthyl acetate], the “minimum inhibitory concentrations (MIC)” value in the assay with Candida albicans [1] (broth culture of Candida albicans, printed as a dilution fraction) was 1/400. Also, the “activity of the components at the concentrations used” value in the assay with Candida albicans [1] is on record as “do not have any activity”. For the same compound, in the assay with Candida albicans [2], the “synergism of the individual compound with Clotrimazole, Amphotericin B and Nystatin” value is “neither menthol nor menthyl acetate could lower the MIC”.

As to `CC1CCC(C(C)C)C(O)C1` (stereo not drawn) [menthol], the MIC in the assay with Candida albicans [1] (broth culture of Candida albicans, read-out: minimum inhibitory concentrations (MIC)) was 500 µg/mL. Moreover, in the assay on Candida albicans [1], the “activity of the components at the concentrations used” value is “do not have any activity”. Moreover, the “synergism of the individual compound with Clotrimazole, Amphotericin B and Nystatin” value in the assay on Candida albicans [2] is on record as “neither menthol nor menthyl acetate could lower the MIC”.

In the case of `C[C@@H]1[C@H](O)[C@@H](C)/C=C/C=C/C=C/C=C/C=C/C=C/C=C/[C@H](O[C@@H]2O[C@H](C)[C@@H](O)[C@H](N)[C@@H]2O)C[C@@H]2O[C@](O)(C[C@@H](O)C[C@@H](O)[C@H](O)CC[C@@H](O)C[C@@H](O)CC(=O)O[C@H]1C)C[C@H](O)[C@H]2C(=O)O` [Amphotericin B (A), Amphotericin B], the MIC was 2.5 µg/mL in the assay with Candida albicans [2] (Amphotericin B (A) + Menthyl acetate (μg/ml)); 2.5 µg/mL with Candida albicans [2] (Candida albicans, Amphotericin B (A) + Menthol (μg/ml), read-out: MIC); 2.5 µg/mL in the assay with Candida albicans [2] (setting [3]).

Turning to `Clc1ccccc1C(c1ccccc1)(c1ccccc1)n1ccnc1` [Clotrimazole (C), Clotrimazole], the MIC in the assay with Candida albicans [2] (Candida albicans, Clotrimazole (C) + Menthyl acetate (μg/ml), read-out: MIC) worked out at 1.25 µg/mL; in the assay with Candida albicans [2] (Clotrimazole (C) + Menthol (μg/ml)), 1.25 μ/ml; with Candida albicans [2] (setting [3]) it was 1.25 µg/mL.

With `C[C@@H]1[C@H](O)[C@@H](C)/C=C/C=C/CC/C=C/C=C/C=C/C=C/C(O[C@H]2O[C@H](C)[C@@H](O)[C@H](N)[C@@H]2O)CC2O[C@](O)(CC(O)C(O)CCC(O)CC(O)CC(O)CC(=O)O[C@H]1C)CC(O)C2C(=O)O` (stereo partly drawn) [Nystatin (N), Nystatin], the MIC in the assay on Candida albicans [2] (Nystatin (N) + Menthol (μg/ml)), in the assay with Candida albicans [2] (Nystatin (N) + Menthyl acetate (μg/ml)) and with Candida albicans [2] (setting [3]) was 5.0 µg/mL each time.
